Assay results taken from ChEMBL document CHEMBL4602605, “Fluoroquinolones structural and medicinal developments (2013-2018): Where are we now?” (Bioorg Med Chem, 2019).
≈ marks a conversion by molar mass, not a printed value.

What was measured:
Format in all cases: functional
[1] = test system: Bacillus subtilis; assay: Antibacterial activity against Bacillus subtilis NCDC 71 by single disk method
[2] = test system: Pseudomonas aeruginosa; assay: Antibacterial activity against Pseudomonas aeruginosa NCDC 105 by single disk method
[3] = test system: Staphylococcus aureus; assay: Antibacterial activity against Staphylococcus aureus NCDC 110 by single disk method
[4] = test system: Escherichia coli; assay: Antibacterial activity against Escherichia coli NCDC 134 by single disk method
[5] = test system: Metaphire posthuma; assay: Anthelmintic activity against Pheretima posthuma assessed as mean paralysing time at 200 mg/ml
[6] = test system: Mus musculus; assay: Analgesic activity in Swiss albino mouse assessed as acetic acid-induced writhing number at 50 mg/kg pretreated for 30 mins followed by acetic acid challenge and measured after 5 to 15 mins (reference value: 30.8 +/- 0.37)
[7] = test system: Paenibacillus polymyxa; assay: Antibacterial activity against Paenibacillus polymyxa NCDC 64 by single disk method
[8] = test system: Klebsiella pneumoniae; assay: Antimicrobial activity against Klebsiella pneumoniae ATCC 29522 incubated for 16 hrs by CLSI-based agar dilution method; settings: ATCC 29522, 16 h
[9] = test system: Staphylococcus aureus; assay: Antimicrobial activity against methicillin-susceptible Staphylococcus aureus clinical isolate incubated for 16 hrs by CLSI based agar dilution method
[10] = test system: Staphylococcus epidermidis; assay: Antimicrobial activity against methicillin-resistant Staphylococcus epidermidis clinical isolate incubated for 16 hrs by CLSI based agar dilution method
[11] = test system: Staphylococcus epidermidis; assay: Antimicrobial activity against methicillin-susceptible Staphylococcus epidermidis clinical isolate incubated for 16 hrs by CLSI based agar dilution method
[12] = test system: Escherichia coli; assay: Antimicrobial activity against Escherichia coli ATCC 700603 incubated for 16 hrs by CLSI-based agar dilution method; settings: ATCC 700603, 16 h
[13] = test system: Pseudomonas aeruginosa; assay: Antimicrobial activity against Pseudomonas aeruginosa ATCC 27853
[14] = test system: Acinetobacter calcoaceticus; assay: Antimicrobial activity against Acinetobacter calcoaceticus ATCC 19606
[15] = test system: Escherichia coli; assay: Antimicrobial activity against ESBL non-producing Escherichia coli ATCC 25922
[16] = test system: Klebsiella pneumoniae; assay: Antimicrobial activity against ESBL-producing Klebsiella pneumoniae ATCC 700603
[17] = test system: Enterobacter cloacae; assay: Antimicrobial activity against Enterobacter cloacae ATCC 43560
[18] = test system: Staphylococcus aureus; assay: Antimicrobial activity against methicillin-resistant Staphylococcus aureus clinical isolate incubated for 16 hrs by CLSI based agar dilution method

MIC [1] | MIC [2] | MIC [3] | MIC [4] | MIC [7] | MIC [13] | MIC [14] | MIC [15] | MIC [16] | MIC [17] | SMILES | Time [5] | Activity [6] | further results
25 µg/mL (≈ 44.1 µM) | 45 µg/mL (≈ 79.4 µM) | 50 µg/mL (≈ 88.3 µM) | 35 µg/mL (≈ 61.8 µM) | 55 µg/mL (≈ 97.1 µM) |  |  |  |  |  | O=C(CN1CCN(c2cc3c(cc2F)c(=O)c(C(=O)O)cn3C2CC2)CC1)Nc1nc2ccc([N+](=O)[O-])cc2s1 | 22.8 min | 14.2 | 
4 µg/mL (≈ 7.19 µM) | 15 µg/mL (≈ 27 µM) | 3 µg/mL (≈ 5.4 µM) | 8 µg/mL (≈ 14.4 µM) | 15 µg/mL (≈ 27 µM) |  |  |  |  |  | O=C(CN1CCN(c2cc3c(cc2F)c(=O)c(C(=O)O)cn3C2CC2)CC1)Nc1nc2ccc(Cl)cc2s1 | 26 min | 13.8 | 
10 µg/mL (≈ 16.9 µM) | 65 µg/mL (≈ 110 µM) | 5 µg/mL (≈ 8.47 µM) | 6 µg/mL (≈ 10.2 µM) | 30 µg/mL (≈ 50.8 µM) |  |  |  |  |  | O=C(CN1CCN(c2cc3c(cc2F)c(=O)c(C(=O)O)cn3C2CC2)CC1)Nc1nc2c(Cl)ccc(Cl)c2s1 | 32.6 min | 15.6 | 
 |  |  |  |  |  |  |  |  |  | CCn1cc(C(=O)O)c(=O)c2cc(F)c(N3CCN(CC(O)Cn4cc([N+](=O)[O-])nc4Cl)CC3)c(OC)c21 (configuration not stated) |  |  | MIC [8]: > 32 µg/mL; MIC [9]: > 32 µg/mL; MIC [10]: > 32 µg/mL; MIC [11]: 32 µg/mL (≈ 57.9 µM); MIC [12]: > 32 µg/mL
75 µg/mL (≈ 125 µM) | 20 µg/mL (≈ 33.3 µM) | 4 µg/mL (≈ 6.67 µM) | 60 µg/mL (≈ 100 µM) | 25 µg/mL (≈ 41.7 µM) |  |  |  |  |  | COc1c(N2CCN(CC(=O)Nc3nc4c(Cl)cccc4s3)C(C)C2)c(F)cc2c(=O)c(C(=O)O)cn(C3CC3)c12 (configuration not stated) | 24.6 min | 19.2 | 
40 µg/mL (≈ 65.5 µM) | 75 µg/mL (≈ 123 µM) | 60 µg/mL (≈ 98.3 µM) | 65 µg/mL (≈ 106 µM) | 45 µg/mL (≈ 73.7 µM) |  |  |  |  |  | COc1c(N2CCN(CC(=O)Nc3nc4c([N+](=O)[O-])cccc4s3)C(C)C2)c(F)cc2c(=O)c(C(=O)O)cn(C3CC3)c12 (configuration not stated) | 1.2 min | 1.63 | 
 |  |  |  |  | 0.09 µM (≈ 0.0607 µg/mL) | 1.48 µM (≈ 0.999 µg/mL) | ≤ 0.04 µM | 1.48 µM (≈ 0.999 µg/mL) | 5.93 µM (≈ 4 µg/mL) | COc1cc(OC)cc(-c2nn(CN3CCN(c4cc5c(cc4F)c(=O)c(C(=O)O)cn5[C@@H]4C[C@@H]4F)CC3)c(=S)n2-c2ccccc2)c1 |  |  | 
35 µg/mL (≈ 65.3 µM) | 45 µg/mL (≈ 84 µM) | 40 µg/mL (≈ 74.7 µM) | 20 µg/mL (≈ 37.3 µM) | 110 µg/mL (≈ 205 µM) |  |  |  |  |  | Cc1ccc2nc(NC(=O)CN3CCN(c4cc5c(cc4F)c(=O)c(C(=O)O)cn5C4CC4)CC3)sc2c1 | 23.2 min | 16.2 | 
 |  |  |  |  | 1.47 µM (≈ 0.999 µg/mL) | 11.8 µM (≈ 8.02 µg/mL) | ≤ 0.04 µM | 1.47 µM (≈ 0.999 µg/mL) | ≤ 0.04 µM | O=C(O)c1cn([C@@H]2C[C@@H]2F)c2cc(N3CCN(Cn4nc(-c5cc6ccccc6cn5)n(Cc5ccccc5)c4=S)CC3)c(F)cc2c1=O |  |  | 
 |  |  |  |  | 1.63 µM (≈ 1 µg/mL) | 6.5 µM (≈ 4 µg/mL) | ≤ 0.05 µM | 1.63 µM (≈ 1 µg/mL) | ≤ 0.05 µM | O=C(O)c1cn([C@@H]2C[C@@H]2F)c2cc(N3CCN(Cn4nc(-c5ccccn5)n(-c5ccccc5)c4=S)CC3)c(F)cc2c1=O |  |  | 
 |  |  |  |  |  |  |  |  |  | COc1c(N2CCN(C(O)Cn3cc([N+](=O)[O-])nc3Cl)CC2)c(F)cc2c(=O)c(C(=O)O)cn(C3CC3)c12 (configuration not stated) |  |  | MIC [8]: > 32 µg/mL; MIC [18]: 8 µg/mL (≈ 14.5 µM); MIC [9]: 0.5 µg/mL (≈ 0.908 µM); MIC [10]: 0.03 µg/mL (≈ 0.0545 µM); MIC [11]: 0.25 µg/mL (≈ 0.454 µM); MIC [12]: 4 µg/mL (≈ 7.26 µM)
 |  |  |  |  | 1.59 µM (≈ 1 µg/mL) | 6.36 µM (≈ 4 µg/mL) | ≤ 0.05 µM | 0.4 µM (≈ 0.252 µg/mL) | ≤ 0.05 µM | O=C(O)c1cn([C@@H]2C[C@@H]2F)c2cc(N3CCN(Cn4nc(-c5cccnc5)n(Cc5ccccc5)c4=S)CC3)c(F)cc2c1=O |  |  | 
70 µg/mL (≈ 120 µM) | 50 µg/mL (≈ 85.7 µM) | 15 µg/mL (≈ 25.7 µM) | 140 µg/mL (≈ 240 µM) | 25 µg/mL (≈ 42.8 µM) |  |  |  |  |  | COc1c(N2CCN(CC(=O)Nc3nc4c(F)cccc4s3)C(C)C2)c(F)cc2c(=O)c(C(=O)O)cn(C3CC3)c12 (configuration not stated) | 23.6 min | 15 | 
 |  |  |  |  | 0.79 µM (≈ 0.497 µg/mL) | ≤ 0.05 µM | ≤ 0.05 µM | 0.79 µM (≈ 0.497 µg/mL) | 0.79 µM (≈ 0.497 µg/mL) | O=C(O)c1cn([C@@H]2C[C@@H]2F)c2cc(N3CCN(Cn4nc(-c5ccccn5)n(Cc5ccccc5)c4=S)CC3)c(F)cc2c1=O |  |  | 
30 µg/mL (≈ 57.3 µM) | 20 µg/mL (≈ 38.2 µM) | 25 µg/mL (≈ 47.7 µM) | 65 µg/mL (≈ 124 µM) | 45 µg/mL (≈ 85.9 µM) |  |  |  |  |  | CCn1cc(C(=O)O)c(=O)c2cc(F)c(N3CCN(CC(=O)Nc4nc5ccc(C)cc5s4)CC3)cc21 | 28.4 min | 17.8 | 
 |  |  |  |  | 0.71 µM (≈ 0.5 µg/mL) | 5.68 µM (≈ 4 µg/mL) | ≤ 0.04 µM | 1.42 µM (≈ 1 µg/mL) | ≤ 0.04 µM | COc1cc(-c2nn(CN3CCN(c4cc5c(cc4F)c(=O)c(C(=O)O)cn5[C@@H]4C[C@@H]4F)CC3)c(=S)n2-c2ccccc2)cc(OC)c1OC |  |  | 
